Reference: patent US9133225B2, “Dual targeting anticancer agents” (priority 2013, dated 2015)

Columns and labels:
A549 cells [1] = test: Immunoblotting of DNA damage and apoptosis biomarkers; format: cell-based; conditions: 0.75-6 μM, 48 h
Method: To gain further insight into the cellular response evoked by Pt(IV)(α-TOS)(OEt) treatment, biomarkers related to DNA damage and apoptosis were monitored. […] Whole cell lysates were resolved by SDS-PAGE and analyzed by immunoblotting against γH2AX, p53, and cleaved caspase-7, cleaved caspase-9, cleaved PARP-1, and β-actin as control.
A549 cells (5×10^5 cells) were incubated with test compound for 48 h at 37° C. Cells were washed with PBS, scraped into SDS-PAGE loading buffer (64 mM Tris-HCl (pH6.8)/9.6% glycerol/2% SDS/5% β-mercaptoethanol/0.01% Bromophenol Blue) and incubated at 95° C. for 10 min. Whole cell lysates were resolved by 4-20% sodium dodecylsulphate polyacylamide gel electrophoresis (SDS-PAGE; 200 V for 1 h) followed by electro transfer to polyvinylidene difluoride membrane, PVDF (350 mA for 1 h). Membranes were blocked in 5% (w/v) non-fat milk in PBST (PBS/0.1% Tween 20) and incubated with the appropriate primary antibodies (Cell Signalling Technology and Santa Cruz). After incubation with horseradish peroxidase-conjugated secondary antibodies (Cell Signalling Technology), immune complexes were detected with the ECL detection reagent (BioRad) and analysed using an Alpha Innotech ChemiImager™ 5500 fitted with a chemiluminescence filter.

A549 cells [2] = test: JC-1 mitochondrial membrane potential assay; format: cell-based
Method: To investigate the effect of Pt(IV)(α-TOS)(OEt) on mitochondria, changes in the mitochondrial membrane potential were assessed by the JC-1 assay. JC-1 (5,5′,6,6′-tetrachloro-1,1′3,3′-tetraethylbenzimidazolylcarbocyanine iodide) is a positively charged lipophilic dye, which accumulates in the mitochondria of healthy cells as red-emitting aggregates. When the mitochondrial membrane is compromised, JC-1 de-aggregates into monomeric forms that emit green fluorescence. […] These findings were confirmed using flow cytometry. A large population of untreated and Pt(IV)(α-TOS)(OEt)-treated A549 cells were examined.
In order to monitor the cell cycle, flow cytometry studies were carried out. A549 cells were incubated with and without the test compounds for 24 and 48 h at 37° C. Cells were harvested from adherent cultures by trypsinization and combined with all detached cells from the incubation medium to assess total cell viability. Following centrifugation at 1000 rpm for 5 min, cells were washed with PBS and then fixed with 70% ethanol in PBS. Fixed cells were collected by centrifugation at 2500 rpm for 3 min, washed with PBS and centrifuged as before. Cellular pellets were re-suspended in 50 μg/mL propidium iodide (Sigma) in PBS for nucleic acids staining and treated with 100 μg/mL RNaseA (Sigma). DNA content was measured on a FACSCalibur-HTS flow cytometer (BD Biosciences) using laser excitation at 488 nm and 20,000 events per sample were acquired. Cell cycle profiles were analysed using the ModFit software. For the apoptosis experiments, the Annexin V-FITC Early Apoptosis Detection Kit (Cell Signaling Technology) was used. […] The samples were kept on ice prior to being read on the FACSCalibur-HTS flow cytometer (BD Biosciences) (20,000 events per sample were acquired). Cell populations were analysed using the FlowJo software (Tree Star). […] The cells were incubated for 30 min, harvested, and analysed by using the FACSCalibur-HTS flow cytometer (BD Biosciences) (20,000 events per sample were acquired). […] Cell populations were analysed using the FlowJo software (Tree Star).

PC-3 cells = test: MTT cytotoxicity assay, PC-3; conditions: read-out: cytotoxicity IC50; PC-3, prostate; MTT, 48 h treatment; spread in brackets
Source text: (a) Dulbecco's Modified Eagle Medium (DMEM), Dulbecco's phosphate buffered saline (DPBS), fetal bovine serum (FBS) and 0.25% trypsin/EDTA solutions were purchased from Cellgro (Manassas, Va.). Penicillin-streptomycin solutions were purchased from Mediatech (Manassas, Va.). (b) HeLa (CCL-2TM) cells, A549, A2870, A2870/CP70, MCF-7, PC-3, and MRC-5 cells were purchased from American Type Culture Collection (ATCC, Manassas, Va., USA). (c) HCT116 cells were kindly donated by Laura Trudel (MIT). HeLa, A549, MCF-7, and MRC-5 cells were cultured using DMEM supplemented with 10% FBS and 1% penicillin-streptomycin. A2870, A2870/CP70, and PC-3 cells were cultured in RPMI supplemented with 10% FBS and 1% penicillin-streptomycin. HCT116 cells were cultured in McCoy's supplemented with 10% FBS and 1% penicillin-streptomycin. All cell-culture experiments were performed in the aforementioned media in an incubator operating at 37° C. and in the presence of a humidified atmosphere containing 5.0% CO2. Cells were harvested using a 0.25% trypsin/EDTA solution.
The cytotoxicity of the compounds was assessed by means of the MTT assay (MTT=3-(4,5-dimethyl-2-thiazolyl)-2,5-diphenyl-2H-tetrazolium bromide). Typically, on day one, ˜1×10^3 cells were seeded into 96-well plates in 100 μL media per well. The last row of the plate was left empty as a control for background absorption. The cells were allowed to grow for 24 h in the incubator at 37° C. On day two, a series of drug dilutions in growth media were prepared immediately prior to cell treatment. The media in the wells of the 96 plates were replaced with 100 μL of growth media containing appropriate drug concentrations. The cells were treated for 48 h at 37° C. in the incubator. On day four, a stock solution of MTT (5 mg/mL in PBS buffer) was diluted with media so that, when 100 μL of the media was added to each well, 10 μL of MTT stock was applied. […] The optical density for each well at 550 nm was measured with a microplate reader.

Compound: CC[O][Pt]([NH2])([NH2])([Cl])([Cl])[O]C(=O)CCC(=O)Oc1c(C)c(C)c2c(c1C)CCC(C)(CCCC(C)CCCC(C)CCCC(C)C)O2 (stereo not drawn) [Pt(IV)(α-TOS)(OEt)]
- cleaved PARP-1 expression (A549 cells [1]): increased
- cleaved caspase-9 expression (A549 cells [1]): increased
- p53 expression (A549 cells [1]): increased in a dose-dependent manner
- γH2AX expression (A549 cells [1]): an increase in γH2AX expression
- cells expressing green JC-1 fluorescence (FL1-H), flow cytometry (A549 cells [2]; 25 μM, 4 h): a marked increase in cells expressing green fluorescence
- JC-1 fluorescence (mitochondrial membrane disruption), microscopy (A549 cells [2]; cisplatin or Pt(IV)(α-TOS)(OEt) at 20 μM, 4 hours): A similar phenomenon was observed
- IC50 (PC-3 cells): 2.5 µM
